We go through 15 compounds from PMC10993414, “Water Quality Monitoring with the Multiplexed Assay MitoOxTox for Mitochondrial Toxicity, Oxidative Stress Response, and Cytotoxicity in AREc32 Cells” (Environmental Science & Technology, 2024).

Where two headings read alike, the source gives them in different places.

Data set [1] deals with Nrf2-mediated oxidative stress response pathway (ARE) in AREc32 cells.
Data set [2] deals with mitochondrial membrane potential (MMP) in AREc32 cells. Put plainly: Disruption of mitochondrial membrane potential (m-MPI red/green ratio), MitoOxTox. The settings on record: for EC10: MMP, AREc32, 24 h; for MMP inhibition activity (in words): MitoOxTox, AREc32.
The subject of data set [3] is oxidative stress response in AREc32 cells. Set-up: method as in Escher et al. 42. The conditions noted are these: original AREc32 reporter gene assay; ref Escher et al. 42; cited from earlier work. In general terms: In a reporter assay the amount or activity of a reporter protein is the signal.
In data set [4] the test system is Nrf2-mediated oxidative stress response pathway (ARE) in AREc32 cells. Put plainly: cells. The conditions noted are these: Arec32, 24 h, read-out: Oxidative stress response ECIR1.5 (M).
For data set [5] the following is noted: experimental; ref PhysPropNCCT; cited from earlier work.
Data set [6] has as its system AREc32 cells.
Data set [7] deals with AREc32 cells. The source holds these as a separate data set.
Data set [8] has as its system mitochondrial membrane potential (MMP) in HepG2 cells. The settings on record: cited from earlier work; for MMP inhibition activity (in words): Tox21 MMP assay, HepG2.
The subject of data set [9] is AREc32 cells. Nature of the data set: Cytotoxicity with ImageXpress high-content imaging, MitoOxTox. The conditions noted are these: AREc32, 24 h exposure; for Cytotoxicity ImageExpress IC10: 10% reduction in cell viability; for Cytotoxicity ImageExpress log(IC10 (M)): logarithm of IC10, Corning plates.
Data set [10] deals with AREc32 cells. Put plainly: Cytotoxicity (cell confluency) with IncuCyte S3 live cell imaging, MitoOxTox. The conditions noted are these: AREc32, 24 h exposure; for Cytotoxicity Incucyte IC10: 10% reduction in cell viability.
Data set [11] concerns mitochondrial membrane potential (MMP) in AREc32 cells.
For data set [12] the following is noted: ref Cessna et al. 1978; cited from earlier work.
Where [13] appears, read: effect concentration leading to induction ratio 1.5, AREc32, 24 h exposure.
Where [14] appears, read: 10% reduction of MMP, AREc32, 24 h exposure.
The mark [15] stands for this setting: logarithm of EC10, AREc32, 24 h exposure.

By EC10 is commonly meant the concentration at which the effect reaches the 10% level. As to Oligomycin A, the “Oxidative stress response ECIR1.5” value in data set [1] (setting [13]) was over 12.7 µM. Further, in [2] (setting [14]), the “MMP inhibition EC10” value was 0.000235 µM. In data set [2], the 10% effect concentration (EC10) worked out at 0.00024 µM. Moreover, the “MMP inhibition log(EC10 (M))” value in [2] (setting [15]) is reported as -9.63 M.
With `CC(C)(C)c1cc(O)ccc1O` [tBHQ, tert-butylhydroquinone], the ECIR1.5 in [1] (current study, multiplexed MitoOxTox, AREc32) is 3.14 µM; in [3] it was 1.32 µM.
With `CC1=C(C(=O)Nc2ccccc2)SCCO1` [Carboxin], the EC (induction ratio 1.5) in data set [4] worked out at 0.00014 M. The “activation of the oxidative stress response (in words)” value (“activation” for short) in data set [1] (AREc32) is “activated”. In data set [5], the “log Kow [L/L]” value is listed as 2.14 L/L. Besides, the “Cytotoxicity Incucyte IC10” value in data set [6] (human, 24 h) turned out to be 1080 µM. For the same compound, in [2] (setting [14]), the “MMP inhibition EC10” value was determined as 152 µM. In [2], the EC10 turned out to be 152 µM. In addition, the “MMP inhibition log(EC10 (M))” value in data set [2] (setting [15]) is reported as -3.82 M. Further, the “Cytotoxicity ImageExpress log(IC10 (M))” value in data set [7] is on record as “no cytotoxicity”. In addition, in [7] (human, 24 h), the “Cytotoxicity ImageExpress IC10” value was over 429 µM.
As for `O=C(Nc1ccccc1-c1ccc(Cl)cc1)c1cccnc1Cl` [Boscalid], the EC (induction ratio 1.5) in data set [4] is over 8.32e-05 M. Moreover, in data set [5], the “log Kow [L/L]” value was 2.96 L/L. For the same compound, the “MMP inhibition activity (in words)” value in [8] and in data set [2] was “inactive” in each case. The “Cytotoxicity Incucyte log(IC10 (M))” value in [6] was “no cytotoxicity”. Besides, the “Cytotoxicity Incucyte IC10” value in data set [6] (human, 24 h) was over 83.2 µM. Besides, in data set [2] (setting [14]), the “MMP inhibition EC10” value was over 83.2 µM. The “MMP inhibition EC10 (M)” value in data set [2] (10% reduction of MMP, AREc32, 24 h exposure, listed as boscalid) is listed as > 8.32 × 10^–5 M. Besides, the “MMP inhibition log(EC10 (M))” value in data set [2] (setting [15]) is given as “no Effect”. Further, in [7], the “Cytotoxicity ImageExpress log(IC10 (M))” value was “no cytotoxicity”. Besides, in [7] (human, 24 h), the “Cytotoxicity ImageExpress IC10” value was over 83.2 µM.
Turning to `CO/C=C(/C(=O)OC)c1ccccc1Oc1cc(Oc2ccccc2C#N)ncn1` [Azoxystrobin], the “Oxidative stress response ECIR1.5” value in [1] (setting [13]) is over 105 µM. Besides, in [5], the “log Kow [L/L]” value is listed as 2.50 L/L. In addition, in data set [9], the “Cytotoxicity ImageExpress IC10” value is over 105 µM and the “Cytotoxicity ImageExpress log(IC10 (M))” value was “no cytotoxicity”. In addition, the “MMP inhibition EC10” value in [2] (setting [14]) was found to be 15.9 µM. Besides, the “MMP inhibition log(EC10 (M))” value in data set [2] (setting [15]) was -4.80 M. Moreover, in data set [10], the “Cytotoxicity Incucyte IC10” value is over 105 µM. Also, the “Cytotoxicity Incucyte log(IC10 (M))” value in data set [10] (logarithm of IC10, Corning plates) is recorded as “no cytotoxicity”.
In data set [11] (human), `C=C(C)[C@H]1Cc2c(ccc3c2O[C@@H]2COc4cc(OC)c(OC)cc4[C@@H]2C3=O)O1` [Rotenone] gave an SRcytotoxicity of 46. The EC (induction ratio 1.5) in data set [4] was over 6.57e-07 M. For the same compound, in data set [5], the “log Kow [L/L]” value is reported as 4.1 L/L. Moreover, in data set [6] (human), the “Cytotoxicity Incucyte IC10” value worked out at 0.212 µM. Moreover, the “MMP inhibition EC10” value in data set [2] (setting [14]) was found to be 0.00531 µM. Besides, the “MMP inhibition log(EC10 (M))” value in data set [2] (setting [15]) is on record as -8.27 M. In [7] (human), the “Cytotoxicity ImageExpress IC10” value was 0.242 µM and the “Cytotoxicity ImageExpress log(IC10 (M))” value is -6.62 M.
In [11], `CNC(=O)/C(=N/OC)c1ccccc1COc1cc(C)ccc1C` [Dimoxystrobin] returned an SRcytotoxicity of 324. The “Oxidative stress response ECIR1.5” value in [1] (setting [13]) is over 206 µM. In addition, the “Cytotoxicity Incucyte IC10” value in [6] stood at 129 µM. In addition, in data set [2] (setting [14]), the “MMP inhibition EC10” value came out at 0.439 µM. For the same compound, in data set [2] (setting [15]), the “MMP inhibition log(EC10 (M))” value is -6.36 M. Also, in [7], the “Cytotoxicity ImageExpress IC10” value is 142 µM and the “Cytotoxicity ImageExpress log(IC10 (M))” value is reported as -3.85 M.
As for Tributyltin chloride, the “Oxidative stress response ECIR1.5” value in data set [1] is over 1.23 µM. Besides, in data set [2], the “MMP inhibition EC10” value is 0.0145 µM and the “MMP inhibition log(EC10 (M))” value was -7.84 M.
Usually EC50 stands for the midpoint of the concentration-response curve. In the case of `CCC/C=C/C=C/C(=O)O[C@H]1/C(=C/C(=O)OC)C[C@H]2C[C@H]([C@@H](C)O)OC(=O)C[C@H](O)C[C@@H]3C[C@H](OC(C)=O)C(C)(C)[C@](O)(C[C@@H]4C/C(=C/C(=O)OC)C[C@H](/C=C/C(C)(C)[C@]1(O)O2)O4)O3` [bryostatin 1], the EC50 in [8] (HepG2 cells, 1 h of exposure, read-out: EC50 (decrease of MMP)) was 0.0096 µM.
In the case of `N#Cc1cc(Br)c(O)c(Br)c1` [Bromoxynil], the “MMP inhibition EC10” value in data set [2] (setting [14]) amounted to 21.9 µM. For the same compound, in data set [2] (setting [15]), the “MMP inhibition log(EC10 (M))” value is -4.66 M. Also, the “pKa (Acid)” value in [12] is listed as 4.21.
For `CC(C)Oc1cccc(NC(=O)c2ccccc2C(F)(F)F)c1` [Flutolanil], in data set [11] (human), the SRcytotoxicity amounted to 5.5. Moreover, the EC (induction ratio 1.5) in [4] was over 0.000226 M. Further, the “log Kow [L/L]” value in [5] is listed as 3.7 L/L. Further, the “Cytotoxicity Incucyte IC10” value in data set [6] (human) was found to be 106 µM. Also, the “MMP inhibition EC10” value in data set [2] (setting [14]) stood at 25.2 µM. Moreover, in [2] (setting [15]), the “MMP inhibition log(EC10 (M))” value is listed as -4.60 M. For the same compound, in [7] (human), the “Cytotoxicity ImageExpress IC10” value came out at 138 µM and the “Cytotoxicity ImageExpress log(IC10 (M))” value was -3.86 M.
On to `Oc1c(Cl)c(Cl)c(Cl)c(Cl)c1Cl` [Pentachlorophenol], for which the SRcytotoxicity in data set [11] (human) was found to be 6.6. Moreover, the EC (induction ratio 1.5) in data set [4] was 6.91e-05 M. The “activation” value in [1] was “activated”. Also, the “SRcytotoxicity (oxidative stress response)” value in data set [1] (human) is recorded as 6.6. The “Cytotoxicity Incucyte IC10” value in data set [6] (human) was 67.9 µM. In data set [2], the “MMP inhibition EC10” value amounted to 11.2 µM and the “MMP inhibition log(EC10 (M))” value is listed as -4.95 M. In [7] (human), the “Cytotoxicity ImageExpress IC10” value turned out to be 74.4 µM and the “Cytotoxicity ImageExpress log(IC10 (M))” value is -4.13 M.
The compound `CC(C)(C)c1ccc(CCOc2ncnc3ccccc23)cc1` [Fenazaquin] yielded an SRcytotoxicity in data set [11] (human) of 9356. The EC (induction ratio 1.5) in data set [4] was over 0.000314 M. In addition, in [5], the “log Kow [L/L]” value is 5.51 L/L. Besides, in data set [9], the “Cytotoxicity ImageExpress IC10” value is 110 µM and the “Cytotoxicity ImageExpress log(IC10 (M))” value is recorded as -3.96 M. Moreover, in [8], the “MMP inhibition activity (in words)” value is reported as “only active in the MitoOxTox assay”. In addition, in data set [2] (setting [14]), the “MMP inhibition EC10” value is 0.0118 µM. Moreover, the “MMP inhibition activity (in words)” value in [2] was “active”. The “MMP inhibition log(EC10 (M))” value in [2] (setting [15]) is on record as -7.93 M. The “Cytotoxicity Incucyte IC10” value in data set [10] is 100 µM.
Turning to `CO/C=C(/C(=O)OC)c1ccccc1COc1cccc(C(F)(F)F)n1` [Picoxystrobin], the SRcytotoxicity in [11] stood at 59.5. For the same compound, the “Oxidative stress response ECIR1.5” value in [1] (setting [13]) was over 139 µM. Also, in data set [9], the “Cytotoxicity ImageExpress IC10” value turned out to be 80.1 µM and the “Cytotoxicity ImageExpress log(IC10 (M))” value is -4.10 M. For the same compound, the “MMP inhibition EC10” value in data set [2] (setting [14]) was 1.35 µM. Also, in [2] (setting [15]), the “MMP inhibition log(EC10 (M))” value is -5.87 M. Moreover, the “Cytotoxicity Incucyte IC10” value in data set [10] amounted to 77.7 µM.
Regarding `O=[N+]([O-])c1ccc(O)c([N+](=O)[O-])c1` [2,4-Dinitrophenol], the SRcytotoxicity in data set [11] (human) is on record as 35.1. Moreover, the EC (induction ratio 1.5) in [4] came to 0.000156 M. Also, in [1] (AREc32), the “activation” value is given as “activated”. The “log Kow [L/L]” value in data set [5] is 1.67 L/L. Further, the “Cytotoxicity Incucyte IC10” value in data set [6] (human) worked out at 281 µM. Also, the “MMP inhibition EC10” value in data set [2] (setting [14]) was 12.1 µM. In addition, in data set [2] (setting [15]), the “MMP inhibition log(EC10 (M))” value is recorded as -4.92 M. Besides, in data set [7] (human), the “Cytotoxicity ImageExpress IC10” value is 426 µM and the “Cytotoxicity ImageExpress log(IC10 (M))” value is given as -3.37 M.
